Source: US20220111013A1, “COMPOUND DECREASING THE CONCENTRATION OF 2-HYDROXY-GLUTARATE” (Universität Heidelberg, priority 2019, published 2022)
“Also recorded” adds a separate entry of the source. Positions of bridges follow the written chain, without caps; N, C: chain ends. No end group written: not given here.

Key:
NRVCMs [1] = assay: 2HG induced cardiomyocyte hypertrophy in NRVCMs with AAV6 transduction; type: cell-based, rat; conditions: L-2HG 2 mM, 2 days
Experimental: (§1) RNA was extracted and purified from frozen mouse heart using Trizol reagent (QIAzol lysis reagent, Qiagen) following manufacturer's instructions, followed by DnaseI digestion. Nucleic acid yields were analyzed photometrically (NanoDrop ND-1000, Spectrophotometer). 1.5 μg RNA was reverse transcribed into cDNA using Superscript III Kit (Invitrogen) and oligo(dT) Primers. cDNA synthesis was followed by RNA digestion using RNase H. qRT-PCR was executed using iTaq Universal SYBR Green Supermix (Thermo Fisher Scientific) and CFX96 Touch Real-Time PCR detection system (Bio Rad) as previously described (Doehner 2014). The following primers used for cDNA relative quantification are listed below.
In additional experiments, NRVCMs were transduced with AAV6 vectors, either overexpressing L2HGDH or luciferase (Luc) as control at the M01=10^5 vp/cell. Three days after transduction L-2HG (Sigma-Aldrich) was applied to cell culture medium to a final concentration of 2 mM. Cells were harvested 2 days after treatment.
Cardiomyocytes were fixed with 4% PFA and blocked in 2.5% BSA in PBS including 0.1% Triton. Next NRVCMs were incubated with monoclonal mouse anti-α-actinin (1:200 in 2.5% BSA in PBS; Sigma) antibody for 1 hour at room temperature. After washing with PBS, secondary antibody conjugated to Alexa Fluor-546 (Thermo Fisher Scientific) together with nuclear stain DAPI (Sigma-Aldrich) at a dilution of 1:200 or 1:1000 respectively in 2.5% BSA in PBS were applied and incubated for 1 h. Afterwards, coverslips were mounted using FluorPreserve reagent (Merck Millipore). Florescence graphs were collected with Keyence fluorescence microscope BZ-9000 at ×10 magnification (objective: CFI Plan Apochromat λ×10; Nikon) and BZ-II viewer software (Keyence, version 2.1). 10 pictures were taken from each coverslip. BZ-II Analyzer (version 2.1) were used to process and analyze the graphs. HybridCellCount module and fluorescence intensity singe-extraction mode were applied for cell size measurement.

[2] = tested on: primary rat neonatal fibroblasts; assay: L-2HG on fibroblast proliferation and collagen synthesis; type: cell-based; conditions: disodium salt; for collagen3a1 expression: Western blot, non-treated fibroblasts as control; for fibroblast proliferation, Ki67-positive nuclei: immunocytochemistry
NRVCMs [3] = assay: Pro-hypertrophic effects of 2-HG on NRVCMs (cell size, ANP and BNP mRNA); type: cell-based, rat; conditions: 2 days
Experimental: as §1
NRVCMs were isolated and prepared as published previously (Rangrez et al. 2013). […]
Cardiomyocytes were fixed with 4% PFA and blocked in 2.5% BSA in PBS including 0.1% Triton. […] Florescence graphs were collected with Keyence fluorescence microscope BZ-9000 at ×10 magnification (objective: CFI Plan Apochromat λ×10; Nikon) and BZ-II viewer software (Keyence, version 2.1). […] HybridCellCount module and fluorescence intensity singe-extraction mode were applied for cell size measurement.

NRVCMs [4] = assay: Mitochondrial membrane potential (JC-1) in NRVCMs; type: cell-based, rat; conditions: 2HG treatment
Experimental: In additional experiments, […] were transduced with AAV6 vectors, either overexpressing L2HGDH or luciferase (Luc) as control at the M01=10^5 vp/cell. Three days after transduction L-2HG (Sigma-Aldrich) was applied to cell culture medium to a final concentration of 2 mM. Cells were harvested 2 days after treatment. Similarly, JC-1 was applied to cell culture medium to a concentration of 1 μmol/L and cells were incubated at 37° C. for 30 min. After washing with warm PBS, cells were imaged in FluoroBrite DMEM (J-monomers Ex:485; Em:535/J-aggregates Ex: 530; Em:590) using a confocal microscope (LSM800, Zeiss). Mean fluorescence intensity was analysed using ImageJ.

Tet2 = molecular target: T1, Tet2 (Rattus norvegicus, UniProt A0ABK0LWH5); assay: Assessment of hydroxymethylation status of cytosine (5mC-Hydroxylase TET activity kit) after 2-HG treatment; type: cell-based; conditions: nuclear extracts of NRVCMs after 2-HG treatment
T1 construct: nuclear extracts isolated from NRVCMs; endogenous in cells; host or cells: primary neonatal rat ventricular cardiomyocytes (NRVCMs), nuclear extract
Experimental: Epigenase 5mC-Hydroxylase TET Activity/Inhibition Assay Kit was employed to analyse Tet2 activity in nuclear extracts isolated from NRVCMs after 2-HG treatment. Cell fractionation was performed according to standard REAP protocol (Suzuki et al. 2010). The measurement of hydroxymethylcytosine (hmC) amount was performed according to manufacturer's instructions. 50 μg of nuclear protein was used per sample.

NRVCMs [5] = assay: Mitochondrial membrane potential (TMRE) in NRVCMs; type: cell-based, rat; conditions: L-2HG treatment, live cell monitoring
Experimental: In additional experiments, […] were transduced with AAV6 vectors, either overexpressing L2HGDH or luciferase (Luc) as control at the M01=10^5 vp/cell. Three days after transduction L-2HG (Sigma-Aldrich) was applied to cell culture medium to a final concentration of 2 mM. Cells were harvested 2 days after treatment. […] were maintained in μ-Slide 8-wells, (Ibidi), suitable for live cell imaging. Cells were incubated with tetramethylrhodamine (TMRE) at 37° C. to a concentration of 50 nmol/L for 30 min. Afterwards, cells were washed with warm PBS and media was replaced with FluoroBrite DMEM (Thermo Fischer Scientific). Cells were imaged within 30 min (Ex: 549; Em: 574 nm).

L2HGDH = assay: Gene expression analysis of L2HGDH in Ang-II infusion mice model; type: in vivo; conditions: Ang-II infusion mice vs controls
Experimental: as §1

[6] = tested on: primary neonatal rat ventricular cardiomyocytes (NRVCMs); assay: Measurement of mitochondrial ROS production with MitoSOX in NRVCM; type: cell-based; conditions: ET-1 stimulation 200 μmol/l for 24 hours, compared to control
Experimental: NRVCMs were isolated and prepared as published previously (Rangrez et al. 2013). Briefly, left ventricles from 1-2 days old Wistar rats (Charles River) were harvested and cut in pH 7.4 buffer containing 120 mmol/liter NaCl, 20 mmol/liter Hepes, 8 mmol/liter NaH2PO4, 6 mmol/liter glucose, 5 mmol/liter KCl, and 0.8 mmol/liter MgSO4. The separation of single cardiomyocyte from cut tissue mass, was achieved by enzymatic digestion with 0.6 mg/ml pancreatin (Sigma) at 37° C. and 0.5 mg/ml collagenase type 11 (Worthington). Cell suspension was filtered by a cell strainer. Newborn calf serum was added to stop enzymatic digestion. In order to separate cardiomyocytes from fibroblasts, a Percoll gradient (GE Healthcare) centrifugation step was performed. Afterwards, cardiomyocytes were cultured in DMEM medium containing 10% fetal calf serum (FCS), 2 mM penicillin/streptomycin, and L-glutamine (PAA Laboratories). […]
MitoSOX was applied to culture medium to a final concentration of 0.5 μM and cells were incubated for 15 minutes at 37° C. […] The fluorescence (red) was detected (Ex: 400 nm, Em at 590 nm) using confocal microscopy (Zeiss LSM 800). Mean fluorescence intensity (MFI) was calculated from the total fluorescence intensity detected from viable cells and divided by the number of cells using the software generated by Image J software (NIH, Bethesda, Md., USA).

T1 sequence (A0ABK0LWH5 1-1959): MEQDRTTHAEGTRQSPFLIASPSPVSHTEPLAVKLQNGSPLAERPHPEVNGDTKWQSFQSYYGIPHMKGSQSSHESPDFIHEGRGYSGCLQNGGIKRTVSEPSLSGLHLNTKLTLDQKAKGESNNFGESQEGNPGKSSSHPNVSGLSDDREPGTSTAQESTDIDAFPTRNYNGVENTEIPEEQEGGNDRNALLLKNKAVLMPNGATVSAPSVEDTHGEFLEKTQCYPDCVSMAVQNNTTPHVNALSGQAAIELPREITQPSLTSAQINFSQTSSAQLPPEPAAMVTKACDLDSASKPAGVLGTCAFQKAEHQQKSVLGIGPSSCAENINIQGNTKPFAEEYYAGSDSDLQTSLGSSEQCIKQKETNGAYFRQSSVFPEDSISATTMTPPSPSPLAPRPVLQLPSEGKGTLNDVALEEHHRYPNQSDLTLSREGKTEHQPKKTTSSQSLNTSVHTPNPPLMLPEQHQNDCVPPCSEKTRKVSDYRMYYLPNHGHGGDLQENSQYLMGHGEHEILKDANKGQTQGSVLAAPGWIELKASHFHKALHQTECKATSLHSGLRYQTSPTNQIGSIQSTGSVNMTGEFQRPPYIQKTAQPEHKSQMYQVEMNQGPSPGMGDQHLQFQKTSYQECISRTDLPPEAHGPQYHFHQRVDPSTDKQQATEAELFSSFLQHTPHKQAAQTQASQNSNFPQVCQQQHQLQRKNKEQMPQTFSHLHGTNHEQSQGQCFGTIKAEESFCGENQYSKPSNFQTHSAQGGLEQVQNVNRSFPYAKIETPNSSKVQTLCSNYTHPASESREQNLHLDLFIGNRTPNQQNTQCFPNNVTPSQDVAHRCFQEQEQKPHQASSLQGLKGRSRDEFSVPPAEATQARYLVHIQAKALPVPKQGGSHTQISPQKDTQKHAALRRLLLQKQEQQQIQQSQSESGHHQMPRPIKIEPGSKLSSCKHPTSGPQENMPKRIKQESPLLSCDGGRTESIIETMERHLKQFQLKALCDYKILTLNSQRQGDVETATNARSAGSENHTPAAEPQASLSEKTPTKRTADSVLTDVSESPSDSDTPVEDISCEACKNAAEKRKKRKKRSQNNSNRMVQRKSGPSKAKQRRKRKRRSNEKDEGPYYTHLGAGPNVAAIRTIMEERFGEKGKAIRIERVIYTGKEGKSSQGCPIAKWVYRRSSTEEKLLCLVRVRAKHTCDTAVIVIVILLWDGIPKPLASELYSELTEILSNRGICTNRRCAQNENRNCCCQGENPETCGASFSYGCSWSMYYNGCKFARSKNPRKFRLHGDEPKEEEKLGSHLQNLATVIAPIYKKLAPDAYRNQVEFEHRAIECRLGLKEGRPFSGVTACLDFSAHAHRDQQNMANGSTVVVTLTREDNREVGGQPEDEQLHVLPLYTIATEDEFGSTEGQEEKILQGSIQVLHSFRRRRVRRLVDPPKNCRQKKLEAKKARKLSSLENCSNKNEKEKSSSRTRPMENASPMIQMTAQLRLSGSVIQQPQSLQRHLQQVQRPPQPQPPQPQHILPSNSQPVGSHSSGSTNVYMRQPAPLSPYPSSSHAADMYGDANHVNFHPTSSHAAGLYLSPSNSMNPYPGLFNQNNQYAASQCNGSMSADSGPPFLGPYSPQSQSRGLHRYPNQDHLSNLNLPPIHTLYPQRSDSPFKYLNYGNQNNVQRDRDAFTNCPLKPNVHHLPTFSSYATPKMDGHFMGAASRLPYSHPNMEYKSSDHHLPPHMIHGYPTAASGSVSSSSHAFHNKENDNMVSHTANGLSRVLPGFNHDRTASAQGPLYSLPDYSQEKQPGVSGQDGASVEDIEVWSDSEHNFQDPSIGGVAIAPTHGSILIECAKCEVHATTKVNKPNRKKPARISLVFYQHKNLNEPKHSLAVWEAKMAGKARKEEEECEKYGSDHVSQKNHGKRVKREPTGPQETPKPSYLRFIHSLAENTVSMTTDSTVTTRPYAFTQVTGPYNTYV

O=C([O-])CC[C@H](O)C(=O)[O-].[Na+].[Na+] [2-HG, L-α-Hydroxyglutaric acid disodium salt]
cell size (NRVCMs [1]): increased | mRNA levels of pro-hypertrophic markers (NRVCMs [1]): increased | induction of hypertrophy in NRVCMs (NRVCMs [1]; disodium salt): marked induction; also recorded: pro-hypertrophic | collagen3a1 expression [2]: induces | collagen3a1 expression ([2]; listed as L-2HG): significant increased | fibroblast proliferation, Ki67-positive nuclei [2]: induces | fibroblast proliferation, Ki67-positive nuclei ([2]; listed as L-2HG): dramatic increased | cell size (NRVCMs [3]; 2-HG 2 mM in serum-free medium, vs non-treated cells): dramatic increase | fetal gene program, ANP and BNP mRNA (NRVCMs [3]; 2-HG 2 mM): marked increase | JC-1 green/red mean fluorescence intensity (mitochondrial polarization) (NRVCMs [4]): mitochondrial depolarization | epigenetic 5-hmC deposition (Tet2): increased | TMRE fluorescence (mitochondrial membrane potential) (NRVCMs [5]): time-dependent decrease

Ang-II: infused to give the Ang-II infusion mice model of cardiac hypertrophy (DRVYIHPF; Angiotensin-2; UniProt P01019 25-32, looked up)
down-regulation in L2HGDH mRNA level (L2HGDH): 35%

ET-1: hypertrophic stimulation applied to NRVCMs in serum-free medium (CSCSSLMDKECVYFCHLDIIW; disulfide 1-15, 3-11; ends not checked; UniProt P05305 53-73, looked up)
MitoSOX fluorescence level (ROS production) [6]: significant increase
